Data taken from PMC7211198, “Phase 1b study of a small molecule antagonist of human chemokine (C-C motif) receptor 2 (PF-04136309) in combination with nab-paclitaxel/gemcitabine in first-line treatment of metastatic pancreatic ductal adenocarcinoma” (Investigational New Drugs, 2019).
Marks after values point to notes of the source that are not given here.

Experiment: Safety and tolerability (TEAEs, SAEs, DLTs, RP2D) in phase Ib study
Assay type: in vivo, human
From the text: Safety assessments included collection of adverse events (AEs), serious AEs (SAEs), vital signs and physical examination, electrocardiogram (12-lead), laboratory assessments, including pregnancy test, and verification of concomitant treatments. A patient was considered as DLT-evaluable if the patient experienced a DLT or if otherwise, in the absence of a DLT, the patient received at least 85% of the planned doses of each study drug in the first 28-day cycle. DLTs were defined as any of the following events occurring in the first cycle of treatment (days 1 through 28) and attributed (i.e., judged to be at least possibly related) to the combination of PF-04136309 plus nab-paclitaxel/gemcitabine, where relationship with the combination could not be ruled out. DLTs were hematologic events of grade 4 neutropenia lasting >5 days; febrile neutropenia; grade ≥ 3 neutropenic infection; grade ≥ 3 thrombocytopenia with grade ≥ 2 bleeding; grade 4 thrombocytopenia; and nonhematologic events of grade 3 toxicities. Exceptions included nausea and vomiting responding to prophylaxis and/or treatment and lasting <7 days from each chemotherapy infusion period; diarrhea responding to treatment and lasting <7 days; grade 3 fatigue lasting <7 days; grade 3 QT interval corrected for heart rate prolongation (>500 msec) persisting after correction of any reversible causes; and/or grade 3 aspartate aminotransferase (AST) and/or alanine aminotransferase (ALT) increase lasting ≤7 days. All grade 4 toxicities and a delay of >2 weeks in receiving the next scheduled cycle due to persistent treatment-related toxicities were considered DLTs. AEs meeting DLT criteria in the dose-expansion phase included grade 3 events of diarrhea, hypokalemia, and dysesthesia and grade 4 hypoxia. […] AEs were graded according to the National Cancer Institute Common Terminology Criteria for Adverse Events, version 4.03.

[1] = 750 mg BID + nab-P/Gem, all-causality TEAE
[2] = 750 mg BID + nab-P/Gem, treatment-related SAE
[3] = 500-mg BID group (n = 17), n = 1, considered unrelated to study treatment
[4] = Total N = 21, treatment-related TEAE

Structure (SMILES): O=C(NCC(=O)N1CC[C@H](N[C@H]2CC[C@@](O)(c3ccc(-c4ncccn4)cn3)CC2)C1)c1cccc(C(F)(F)F)c1 [PF-04136309]
- Chills, Grade 5 [1]: 0 n (%)
- Chills, Total [1]: 2 (50.0) n (%)
- Constipation, Grade 1 [1]: 2 (50.0) n (%)
- Constipation, Grade 2 [1]: 1 (25.0) n (%)
- Constipation, Grade 3 [1]: 0 n (%)
- Constipation, Grade 4 [1]: 0 n (%)
- Constipation, Grade 5 [1]: 0 n (%)
- Constipation, Total [1]: 3 (75.0) n (%)
- Fatigue, Grade 1 [1]: 3 (75.0) n (%)
- Fatigue, Grade 2 [1]: 1 (25.0) n (%)
- Fatigue, Grade 3 [1]: 0 n (%)
- Fatigue, Grade 4 [1]: 0 n (%)
- Fatigue, Grade 5 [1]: 0 n (%)
- Fatigue, Total [1]: 4 (100.0) n (%)
- Insomnia, Grade 1 [1]: 1 (25.0) n (%)
- Insomnia, Grade 2 [1]: 1 (25.0) n (%)
- Insomnia, Grade 3 [1]: 0 n (%)
- Insomnia, Grade 4 [1]: 0 n (%)
- Insomnia, Grade 5 [1]: 0 n (%)
- Insomnia, Total [1]: 2 (50.0) n (%)
- Leukopenia, Grade 1 [1]: 0 n (%)
- Leukopenia, Grade 2 [1]: 0 n (%)
- Leukopenia, Grade 3 [1]: 3 (75.0) n (%)
- Leukopenia, Grade 4 [1]: 0 n (%)
- Leukopenia, Grade 5 [1]: 0 n (%)
- Leukopenia, Total [1]: 3 (75.0) n (%)
- Malaise, Grade 1 [1]: 2 (50.0) n (%)
- Malaise, Grade 2 [1]: 0 n (%)
- Malaise, Grade 3 [1]: 0 n (%)
- Malaise, Grade 4 [1]: 0 n (%)
- Malaise, Grade 5 [1]: 0 n (%)
- Malaise, Total [1]: 2 (50.0) n (%)
- Nausea, Grade 1 [1]: 3 (75.0) n (%)
- Nausea, Grade 2 [1]: 0 n (%)
- Nausea, Grade 3 [1]: 1 (25.0) n (%)
- Nausea, Grade 4 [1]: 0 n (%)
- Nausea, Grade 5 [1]: 0 n (%)
- Nausea, Total [1]: 4 (100.0) n (%)
- Neutropenia, Grade 1 [1]: 0 n (%)
- Neutropenia, Grade 2 [1]: 0 n (%)
- Neutropenia, Grade 3 [1]: 3 (75.0) n (%)
- Neutropenia, Grade 4 [1]: 0 n (%)
- Neutropenia, Grade 5 [1]: 0 n (%)
- Neutropenia, Total [1]: 3 (75.0) n (%)
- Pain in extremity, Grade 1 [1]: 1 (25.0) n (%)
- Pain in extremity, Grade 2 [1]: 1 (25.0) n (%)
- Pain in extremity, Grade 3 [1]: 0 n (%)
- Pain in extremity, Grade 4 [1]: 0 n (%)
- Pain in extremity, Grade 5 [1]: 0 n (%)
- Pain in extremity, Total [1]: 2 (50.0) n (%)
- Pyrexia, Grade 1 [1]: 1 (25.0) n (%)
- Pyrexia, Grade 2 [1]: 1 (25.0) n (%)
- Pyrexia, Grade 3 [1]: 0 n (%)
- Pyrexia, Grade 4 [1]: 0 n (%)
- Pyrexia, Grade 5 [1]: 0 n (%)
- Pyrexia, Total [1]: 2 (50.0) n (%)
- Rash, Grade 1 [1]: 2 (50.0) n (%)
- Rash, Grade 2 [1]: 1 (25.0) n (%)
- Rash, Grade 3 [1]: 0 n (%)
- Rash, Grade 4 [1]: 0 n (%)
- Rash, Grade 5 [1]: 0 n (%)
- Rash, Total [1]: 3 (75.0) n (%)
- Thrombocytopenia, Grade 1 [1]: 1 (25.0) n (%)
- Thrombocytopenia, Grade 2 [1]: 1 (25.0) n (%)
- Thrombocytopenia, Grade 3 [1]: 0 n (%)
- Thrombocytopenia, Grade 4 [1]: 0 n (%)
- Thrombocytopenia, Grade 5 [1]: 0 n (%)
- Thrombocytopenia, Total [1]: 2 (50.0) n (%)
- Vomiting, Grade 1 [1]: 2 (50.0) n (%)
- Vomiting, Grade 2 [1]: 1 (25.0) n (%)
- Vomiting, Grade 3 [1]: 0 n (%)
- Vomiting, Grade 4 [1]: 0 n (%)
- Vomiting, Grade 5 [1]: 0 n (%)
- Vomiting, Total [1]: 3 (75.0) n (%)
- Any SAE, Grade 1 [2]: 0 n (%)
- Any SAE, Grade 2 [2]: 1 (25.0) n (%)
- Any SAE, Grade 3 [2]: 1 (25.0) n (%)
- Any SAE, Grade 4 [2]: 0 n (%)
- Any SAE, Grade 5 [2]: 0 n (%)
- Any SAE, Total [2]: 2 (50.0) n (%)
- Cognitive disorder, Grade 1 [2]: 0 n (%)
- Cognitive disorder, Grade 2 [2]: 0 n (%)
- Cognitive disorder, Grade 3 [2]: 1 (25.0) n (%)
- Cognitive disorder, Grade 4 [2]: 0 n (%)
- Cognitive disorder, Grade 5 [2]: 0 n (%)
- Cognitive disorder, Total [2]: 1 (25.0) n (%)
- Rash, Grade 1 [2]: 0 n (%)
- Rash, Grade 2 [2]: 1 (25.0) n (%)
- Rash, Grade 3 [2]: 0 n (%)
- Rash, Grade 4 [2]: 0 n (%)
- Rash, Grade 5 [2]: 0 n (%)
- Rash, Total [2]: 1 (25.0) n (%)
- Patients who experienced SAEs (14 of the 21 treated patients): 66.7%
- Grade 4 TEAE: decreased neutrophil count, patients [3]: 5.9%
- Grade 4 TEAE: decreased white blood cell count, patients [3]: 5.9%
- PF-04136309-related TEAE: rash, patients (500-mg BID group (n = 17), n = 6): 35.3%
- PF-04136309-related TEAE: rash, patients (750-mg BID group (n = 4), n = 3): 75.0%
- DLT events (750-mg BID group, one of four patients, cycle 1 day 7, resolved same day): grade 3 cognitive disorder
- ALT increase, grade ≥3 [4]: 4 (19.0) n (%)
- AST increase, grade ≥3 [4]: 4 (19.0) n (%)
- Anemia, grade ≥3 [4]: 4 (19.0) n (%)
- Fatigue, grade ≥3 [4]: 4 (19.0) n (%)
- Leukopenia, grade ≥3 [4]: 5 (23.8) n (%)
- Lymphopenia, grade ≥3 [4]: 5 (23.8) n (%)
- Neutropenia, grade ≥3 [4]: 5 (23.8) n (%)
- DLT (Total n = 21, first cycle, 5 DLTs in four patients): 4 (19.0)^c n (%)
- Deaths (all in 500-mg BID group, 10 of 11 due to disease under study, one due to grade 5 pneumonia): Eleven
- Changes in laboratory tests consistent with a relationship to study drug (all treated patients): no clinically significant changes
- Changes in vital signs data consistent with a relationship to study drug (all treated patients): no clinically significant changes
- Recommended phase II dose (RP2D) (in combination with nab-paclitaxel/gemcitabine): 500 mg BID
- Late-onset DLT (in vivo): Grade 3 pneumonitis
- Incidence of pulmonary toxicity (n = 21, combination with nab-paclitaxel/gemcitabine): 24%
- Patients who experienced treatment-related SAEs (seven of 21, attributed to at least one of PF-04136309, nab-paclitaxel, gemcitabine): 33.3%
